Assay results published in patent US20070129415A1, “Method of Treating Isolated Systolic Hypertension” (priority 1997, published 2007).

Test system: prejunctional AII receptors and sympathetic outflow
Assay: Spinal cord-stimulated pithed rats: pressor response to stimulation of sympathetic vasomotor outflow
Assay type: in vivo, Sprague-Dawley rats
Settings: pithed rat; for inhibition of the pressor responses mediated by sympathetic nervous system activation (spinal cord stimulation): 0.3 mg/kg, i.v. 10 min before second frequency-response curve, 50 V, 1 msec, 0.3-5.0 Hz
Protocol: Normotensive male Sprague-Dawley rats (300-350 gm) were anesthetized with Brevital (10 mg/kg, i.v.), a tracheostomy was performed and the rats were then pithed by inserting a steel rod (1.5 mm in diameter) through the orbit and foramen magnum into the spinal cord. Immediately after pithing, rats were ventilated artificially with room air using a rodent respirator at a frequency of 60 cycles/min with a volume of 2 ml/100 gm body weight. The pithing rod was insulated except for a 6-cm section distal from the tip. Body temperature was maintained at 37-38° C. by a thermostatic heating pad. Animals were treated with tubocurararine (1 mg/kg, i.v) and atropine (1 mg/kg, i.v.), to prevent muscle movement during spinal cord stimulation and parasympathetic effects, respectively. Systemic arterial blood pressure was measured from the right carotid artery by a Statham P23 pressure transducer and recorded on a Grass polygraph. The left jugular vein was cannulated for i.v. administration of drugs.
Stimulation of sympathetic vasomotor outflow was accomplished by a consecutive train of stimulation (50 V, 1 msec, 0.3-5.0 Hz) which was delivered for 15 sec at each frequency. […] For all the compounds evaluated, this dose provided effective blockade of the pressor response to exogenous AII (100 ng/kg, i.v.). Each rat served as its own control.
AII data are shown as the means±S.E.M. of the number (n) of observations. Statistical significance of the differences between drug-treated animals and vehicle-control animals was tested by a one-way analysis of variance with a P valued of 0.05 accepted as significant.

In the case of CCCCC(=O)N(Cc1ccc(-c2ccccc2-c2nnn[nH]2)cc1)[C@H](C(=O)O)C(C)C [valsartan], the “inhibition of the pressor responses mediated by sympathetic nervous system activation (spinal cord stimulation)” value (shortened to “inhibition … (spinal cord stimulation)”) is reported as “neither losartan, valsartan, or irbesartan produced significant inhibition”.
For “angiotensin II (DRVYIHPF; Angiotensin-2; UniProt P01019 25-32, looked up) [AII, angiotensin II (AII), infused at a sub-pressor dose]”, the “shift of the frequency-response curve (pressor response to spinal cord stimulation)” value (continuous infusion of a sub-pressor dose, 40 ng/kg/min) was “significant leftward shifts”.
For CCCCc1ncc(/C=C(\Cc2cccs2)C(=O)O)n1Cc1ccc(C(=O)O)cc1 [Eprosartan, (E)-α-[2-n-butyl-1-[(4-carboxyphenyl)methyl]-1H-imidazol-5-yl]methylene-2-thiophenepropionic acid monomethanesulfonate], the “inhibition … (spinal cord stimulation)” value was “significant inhibition”.
With CCCCc1nc(Cl)c(CO)n1Cc1ccc(-c2ccccc2-c2nn[nH]n2)cc1 [losartan] the “inhibition … (spinal cord stimulation)” value was “neither losartan, valsartan, or irbesartan produced significant inhibition”.
In the case of Sar^1-Ile^8[AII], the “inhibition of the increase in pressor response to spinal cord stimulation” value (continuous infusion 10 ug/kg/min) is reported as “significantly inhibited”.
For CCCCC1=NC2(CCCC2)C(=O)N1Cc1ccc(-c2ccccc2-c2nnn[nH]2)cc1 [irbesartan], the “inhibition … (spinal cord stimulation)” value was “neither losartan, valsartan, or irbesartan produced significant inhibition”.
